The target in assay [1] is T1, CRBN-DDB1 (Homo sapiens, UniProt Q96SW2).
T1 construct: 6xHis (given for the complex); made in house; host or cells: Sf9 cells (Invitrogen), pFastBac
The assay is described as follows: CRBN-DDB1 Ligand-Displacement AlphaScreen Assay (thalidomide competition).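 Note: streptavidin donor and nickel chelate acceptor bead proximity signal after 30 min incubation, normalized with no-protein background as 0% and DMSO wells as 100% activity.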 In kind it is binding. Particulars: read-out: CRBN alpha IC50. Background: Bead proximity is the source of the signal in Alpha formats.

Assay [2] deals with 797. The assay is described as follows: Cell viability, 797 cells (Table 4). In kind it is cell-based. Particulars: read-out: IC50 (nM) 797.
Assay [3] concerns the target T2, BRD4 adjoined to nanoluciferase (Nluc) (Homo sapiens, UniProt O60885+Q96SW2).
T2 construct: expressed in transfected cells
The assay is described as follows: BRD4 Dual Luciferase Assay.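 For all read-outs here: transduced reporter cells exposed to compound for 4 h, then Nluc and Fluc luminescence read, each normalized to DMSO controls and expressed as Nluc/Fluc ratio per well.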 It is filed as cell-based. Particulars: for Emax: BRD4 remaining at Emax, read-out: BRD4− Emax (percent remaining).

[4] abbreviates: 4 hours, read-out: max degradation (dual luc).
Setting [5] is: read-out: BRD4 max degradation(%) Dual Luciferase.

Where two headings read alike, the source gives them in different places.

Broadly, the IC50 is the concentration at which inhibition is half-maximal. On to `O=C1CCC(N2C(=O)c3ccc(NCc4ccco4)cc3C2=O)C(=O)N1` [Compound D-28, 2-(2,6-dioxopiperidin-3-yl)-5-((furan-2-ylmethyl)amino)isoindoline-1,3-dione], for which the IC50 in assay [1] was 0.0401 µM.
The same measure, in the same setting: the figure for `CC(C)(C)OC(=O)NCCNc1cccc2c1C(=O)N(C1CCC(=O)NC1=O)C2=O` [Compound D-29, tert-butyl (2-((2-(2,6-dioxopiperidin-3-yl)-1,3-dioxoisoindolin-4-yl)amino)ethyl)carbamate] is 0.14 µM; for `O=C1CCC(N2C(=O)c3ccc(NC(=O)CCl)cc3C2=O)C(=O)N1` [Compound D-32, 2-chloro-N-(2-(2,6-dioxopiperidin-3-yl)-1,3-dioxoisoindolin-5-yl)acetamide] it is 0.0214 µM.
Still for that read-out and setting: for `O=C1CCC(N2C(=O)c3c(Cl)ccc(Cl)c3C2=O)C(=O)N1` [Compound D-51, 4,7-dichloro-2-(2,6-dioxopiperidin-3-yl)isoindoline-1,3-dione] the value was 1.17 µM; for `C[C@@]1(N2C(=O)c3cccc(O)c3C2=O)CCC(=O)NC1=O` [Compound D-52, (R)-4-hydroxy-2-(3-methyl-2,6-dioxopiperidin-3-yl)isoindoline-1,3-dione], 39.5 µM; for `C[C@]1(N2C(=O)c3cccc(O)c3C2=O)CCC(=O)NC1=O` [Compound D-53, (S)-4-hydroxy-2-(3-methyl-2,6-dioxopiperidin-3-yl)isoindoline-1,3-dione], 56.1 µM.
The same measure, in the same setting: the figure for `C[C@@]1(N2C(=O)c3cccc(OCC(=O)O)c3C2=O)CCC(=O)NC1=O` [Compound D-54, (R)-2-((2-(3-methyl-2,6-dioxopiperidin-3-yl)-1,3-dioxoisoindolin-4-yl)oxy)acetic acid] is > 50 µM.
Regarding `C[C@]1(N2C(=O)c3cccc(OCC(=O)O)c3C2=O)CCC(=O)NC1=O` [Compound D-55, (S)-2-((2-(3-methyl-2,6-dioxopiperidin-3-yl)-1,3-dioxoisoindolin-4-yl)oxy)acetic acid], the half-inhibitory concentration (IC50) in assay [1] was > 50 µM.
Still for that read-out and setting: the figure for `O=C1CCC(N2C(=O)c3cccc([N+](=O)[O-])c3C2=O)C(=O)N1` [Compound D-56] is 3.06 µM; for `O=C1CCC(N2C(=O)c3ccc(Br)cc3C2=O)C(=O)N1` [Compound D-58] it is 0.715 µM; for `CCOc1cccc2c1C(=O)N(C1CCC(=O)N(CC)C1=O)C2=O` [Compound D-59] it is > 50 µM.
As for `CCOc1cccc2c1C(=O)N(C1CCC(=O)NC1=O)C2=O` [Compound D-60], in assay [1], the 50% inhibitory concentration (IC50) worked out at 0.259 µM.
Still for that read-out and setting: the figure for `O=C1CCC(N2C(=O)c3ccc([N+](=O)[O-])cc3C2=O)C(=O)N1` [Compound D-61] is 2.66 µM.
On the same count and under the same terms, the figure for `O=C(O)COc1cccc2c1C(=O)N(C1CCC(=O)NC1=O)C2=O` [Compound D-64] is 2.13 µM.
Still for that read-out and setting: for `COC(=O)COc1cccc2c1C(=O)N(C1CCC(=O)NC1=O)C2=O` [Compound D-65] the value was 1.12 µM.
For the compound `COc1cc(C(=O)NCCCCNC(=O)COc2cccc3c2C(=O)N(C2CCC(=O)NC2=O)C3=O)ccc1Nc1ccc2c(n1)N(C1CCCC1)[C@H](C)C(=O)N2C` (stereo partly drawn) [dBET16], in assay [2], the IC50 is 4900 nM.
On to `Cc1cnc(Nc2ccc(N3CCN(C(=O)CCCNC(=O)COc4cccc5c4C(=O)N(C4CCC(=O)NC4=O)C5=O)CC3)cc2)nc1Nc1cccc(S(=O)(=O)NC(C)(C)C)c1` (stereo not drawn) [dBET20], for which the results for the Dmax in assay [3] (setting [4]) and in assay [3] (setting [5]) were 7.04% and < 10%, respectively. The IC50 in assay [2] was determined as 14700 nM.
As usually defined, the Emax is the size of the effect at its maximum, as opposed to the concentration needed. For the compound `Cc1sc2c(c1C)C(c1ccc(Cl)cc1)=N[C@@H](CC(=O)NCCCCCCCCOc1cccc3c1C(=O)N(C1CCC(=O)NC1=O)C3=O)c1nnc(C)n1-2` (stereo partly drawn) [dBET21], the maximal response (Emax) in assay [3] is 78.1%. In addition, the Dmax in assay [3] (setting [5]) was 21%. Besides, in assay [2], the IC50 was found to be 630 nM.
For `Cc1sc2c(c1C)C(c1ccc(Cl)cc1)=N[C@@H](CC(=O)NCCOCCOCCNC(=O)COc1cccc3c1C(=O)N(C1CCC(=O)NC1=O)C3=O)c1nnc(C)n1-2` (stereo partly drawn) [dBET24], in assay [3], the “Conc@Emax” value came out at 5 µM and the maximal response (Emax) came out at 43%. In assay [3] (setting [4]), the Dmax was found to be 50.4%. The Dmax in assay [3] (setting [5]) came to 50%.
On to `COC(=O)C[C@@H]1N=C(c2ccc(Cl)cc2)c2c(sc(C)c2C(=O)NCCCCNC(=O)COc2cccc3c2C(=O)N(C2CCC(=O)NC2=O)C3=O)-n2c(C)nnc21` (stereo partly drawn) [dBET25], for which the Dmax amounted to 41.7% in assay [3] (setting [4]) and 42% in assay [3] (setting [5]). Further, the IC50 in assay [2] stood at 6860 nM.
`COC(=O)C[C@@H]1N=C(c2ccc(Cl)cc2)c2c(sc(C)c2C(=O)NCCCCCCCCNC(=O)COc2cccc3c2C(=O)N(C2CCC(=O)NC2=O)C3=O)-n2c(C)nnc21` (stereo partly drawn) [dBET26]: the Dmax in assay [3] (setting [4]) was found to be 39.9%; in assay [3] (setting [5]), 40%. Moreover, the IC50 in assay [2] came out at 7020 nM.
For the compound `Cc1sc2c(c1C)C(c1ccc(Cl)cc1)=N[C@@H](CC(=O)NCCOCCOc1cccc3c1C(=O)N(C1CCC(=O)NC1=O)C3=O)c1nnc(C)n1-2` (stereo partly drawn) [dBET27], in assay [3], the “Conc@Emax” value was found to be 0.5 µM. In addition, the Dmax in assay [3] (setting [4]) and in assay [3] (setting [5]) was 30% throughout. Besides, the Emax in assay [3] is 67.3%.
Take `Cc1sc2c(c1C)C(c1ccc(Cl)cc1)=N[C@@H](CC(=O)NCCCCCCOc1cccc3c1C(=O)N(C1CCC(=O)NC1=O)C3=O)c1nnc(C)n1-2` (stereo partly drawn) [dBET29]: the “Conc@Emax” value in assay [3] worked out at 0.05 µM. For the same compound, the Dmax in assay [3] (setting [4]) and in assay [3] (setting [5]) was 19% in each case. In addition, the Emax in assay [3] was 75.5%.
`Cc1c(C(=O)NCCCCCCCCNC(=O)COc2cccc3c2C(=O)N(C2CCC(=O)NC2=O)C3=O)sc2c1C(c1ccc(Cl)cc1)=N[C@@H](CC(=O)NCCCN1CCN(C)CC1)c1nnc(C)n1-2` (stereo partly drawn) [dBET31]: the Emax in assay [3] was found to be 45.6%.
Turning to `Cc1sc2c(c1C)C(c1ccc(Cl)cc1)=N[C@@H](CC(=O)NCCCCNC(=O)CNc1cccc3c1CN(C1CCC(=O)NC1=O)C3=O)c1nnc(C)n1-2` (stereo partly drawn) [dBET35], the Dmax worked out at 11.7% in assay [3] (setting [4]) and 12% in assay [3] (setting [5]). Further, the concentration for half-maximal inhibition (IC50) in assay [2] was determined as 372 nM.
With `Cc1sc2c(c1C)C(c1ccc(Cl)cc1)=N[C@@H](CC(=O)NCCCCNC(=O)Cc1cccc3c1C(=O)N(C1CCC(=O)NC1=O)C3=O)c1nnc(C)n1-2` (stereo partly drawn) [dBET36], the IC50 in assay [2] came out at 725 nM.
`Cc1sc2c(c1C)C(c1ccc(Cl)cc1)=N[C@@H](CC(=O)NCCCCCC(=O)NCc1cccc3c1C(=O)N(C1CCC(=O)NC1=O)C3=O)c1nnc(C)n1-2` (stereo partly drawn) [dBET37]: the figures for the Dmax in assay [3] (setting [4]) and in assay [3] (setting [5]) were 46.4% and 46%, respectively. For the same compound, the IC50 in assay [2] was determined as 1020 nM.
Consider `Cc1sc2c(c1C)C(c1ccc(Cl)cc1)=N[C@@H](CC(=O)NCCCOCCCNC(=O)COc1cccc3c1C(=O)N(C1CCC(=O)NC1=O)C3=O)c1nnc(C)n1-2` (stereo partly drawn) [dBET38], for which the IC50 in assay [2] stood at 770 nM.
As for `Cc1sc2c(c1C)C(c1ccc(Cl)cc1)=N[C@@H](CC(=O)NCCOCCOCCOc1cccc3c1C(=O)N(C1CCC(=O)NC1=O)C3=O)c1nnc(C)n1-2` (stereo partly drawn) [dBET40], the Dmax in assay [3] (setting [5]) is < 10%. In addition, the half-inhibitory concentration (IC50) in assay [2] came to 299 nM.
For the compound `Cc1sc2c(c1C)C(c1ccc(Cl)cc1)=N[C@@H](CC(=O)NCc1ccc(CNC(=O)COc3cccc4c3C(=O)N(C3CCC(=O)NC3=O)C4=O)cc1)c1nnc(C)n1-2` (stereo partly drawn) [dBET41], the IC50 in assay [2] was determined as 726 nM.
Still for that read-out and setting: for `COc1cc(C(=O)NCCCCCCCCNC(=O)COc2cccc3c2C(=O)N(C2CCC(=O)NC2=O)C3=O)ccc1Nc1ccc2c(n1)N(C1CCCC1)[C@H](C)C(=O)N2C` (stereo partly drawn) [dBET45] the value was 3450 nM.
`COc1cc(C(=O)NCCCOCCOCCOCCCNC(=O)COc2cccc3c2C(=O)N(C2CCC(=O)NC2=O)C3=O)ccc1Nc1ccc2c(n1)N(C1CCCC1)[C@H](C)C(=O)N2C` (stereo partly drawn) [dBET46]: the IC50 in assay [2] worked out at 9450 nM.

These data come from US10464925B2, “Methods to induce targeted protein degradation through bifunctional molecules” (Dana-Farber Cancer Institute, Inc., priority 2015, dated 2019).
